Experimental data from patent US20220096516A1, “OLIGONUCLEOTIDE MOLECULE AND APPLICATION THEREOF IN TUMOR THERAPY” (Ractigen Therapeutics, priority 2019, published 2022).
d = 2'-deoxy (DNA); r = 2'-OH (RNA)

Key:
Huh7 cells = test: Cell viability by CCK-8 method, Huh7; type: cell-based, human; settings: Huh7, 10 nM, 72 h, FIG. 6B
Experimental: The 290 saRNAs targeting the LHPP promoter were individually transfected into Huh7 cells, and 72 hour later, one-step RT-qPCR was employed to analyze the expression levels of LHPP mRNA and cell viability was detected by the CCK-8 method.
(§1) The cell viability was detected by the following CCK-8 method: the cCells were plated into a 96-well plate at 3-5×10^3 cells/well, cultured overnight, and transfected with the oligonucleotide duplexes. After 72 hour of transfection, 10 uL of CCK-8 solution (Dojindo Molecular Technologies) was added into each well. After 1 hour of incubation at 37° C., a microplate reader was used to measure absorbances at 450 nm.
In order to further evaluate the effect of LHPP saRNAs in inducing the mRNA expression of the LHPP gene and inhibiting the proliferation of cancer cells, eight screened saRNAs (RAG7-132, RAG7-133, RAG7-139, RAG7-177, RAG7-178, RAG7-694, RAG7-707 and RAG7-892) each were transfected into the liver cancer cell lines Huh7 (Medical Cell Resource Center, Tohoku University, Japan), HepG2 (ATCC), Hep3B (ATCC), Li-7 (Medical Cell Resource Center, Tohoku University, Japan) and SK-HEP-1 (ATCC), a lung cancer cell line A549 (ATCC), a bladder cancer cell line T24 (ATCC), a prostatic cancer cell line PC3 (ATCC), and a glioma cell line U87MG (ATCC). The mRNA expression and cell viability of the transfected cells were measured.

HepG2 transplanted tumor = HepG2 transplanted tumor growth in nude mice; set-up: species or system BALB/c nude mice; settings: HepG2 xenograft, day 13; saRNA (in vivo-jetPEI) 1 mg/kg intratumor days 1, 4, 7, 10; regorafenib 3 mg/kg intragastric daily day 1-12; vehicle 118%
Experimental: To prepare the saRNA formulation, the in vivo-jetPEI (201-10G, Polyplus-transfection, France) was adopted as an saRNA delivery system. The preparation process is briefly described as follows. An saRNA was first diluted in 10% glucose solution to obtain a solution A. According to the instructions of the manufacturer, a required amount of in vivo-jetPEI was diluted in 10% glucose solution to obtain a solution B. Equal volumes of the solution A and the solution B were mixed (nitrogen-to-phosphorus ratio: 8; final concentration of glucose: 5%). After mixing, the mixture was let to stand at room temperature for 15 minutes for later use.
HepG2 cells in the logarithmic growth phase were obtained and counted, and then the cell suspension was regulated to 5×10^7 cells/mL and subcutaneously inoculated into the right armpit of BALB/c nude mice at a volume of 0.1 mL per mouse. […] Starting from the initial administration, the long diameter and the short diameter of each tumor were measured with a vernier caliper every two days. The tumor volume was calculated according to the formula V=(l×w^2)/2, wherein 1 represents the longest diameter of the tumor and w represents the diameter parallel to the surface of the tumor and perpendicular to the long diameter. A tumor growth curve and size and morphology of the tumor after anatomy were recorded during the administration.

LHPP gene = test: High-throughput screening of saRNAs targeting LHPP promoter: LHPP mRNA by one-step RT-qPCR in Huh7 cells; type: cell-based, human; settings: 10 nM saRNA, 72 hours, relative to control (Mock)
Method in brief: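 LHPP transcript level relative to mock, normalised to the geometric mean of the HPRT1 and TBP reference genes, measured by one-step RT-qPCR on crude lysates. Huh7 cells had been RNAiMax-transfected with each saRNA at 10 nM for 72 h.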

Li-7 cells = test: Cell viability by CCK-8 method, Li-7; type: cell-based, human; settings: Li-7, 10 nM, 72 h, FIG. 6B
Experimental: 8 LHPP promoter-targeting saRNAs were individually transfected into liver cancer cells at 10 nM for 72 h. In FIG. 6A, the expression level of LHPP mRNA was analyzed by RT-qPCR. In FIG. 6B, cell viability in the saRNA treatment group was evaluated by the CCK-8 method and recorded as a percentage relative to the viability of cells in a control (Mock) treatment group.
as §1, with “nm. […]” for “nm.”

Substance: RAG7-133: saRNA duplex; sense GCUCUUUGUCCGCUGAUCUTT (SEQ ID NO: 1), antisense AGAUCAGCGGACAAAGAGCTT (SEQ ID NO: 165) (sugars from the 5' end r19 d2, backbone not given here)
- cell proliferation (cell viability, CCK-8) (Huh7 cells): inhibited cell proliferation
- tumor volume increase compared with that at the beginning of treatment (HepG2 transplanted tumor): 34%
- Fold of changes in relative LHPP mRNA expression level (LHPP gene): 2.54 fold
- Fold of changes in relative LHPP mRNA expression level (log2) (LHPP gene): 1.35 log2
- cell proliferation (cell viability, CCK-8) (Li-7 cells): inhibited cell proliferation
